Results from BindingDB's records for doi:10.1016/j.bmcl.2007.04.096 (University of Michigan, 2007).
Where a SMILES comes first, the peptide text is derived from it. Bridges are numbered along the chain shown (N, C = ends). Triazole bridges read from a SMILES are 1,4-linked. [ ]: non-standard residue; d: D form. ξ: configuration not given here. pY = N[C@@H](Cc1ccc(OP(=O)(O)O)cc1)C(=O)O; Lys(N3) = [N-]=[N+]=NCCCC[C@H](N)C(=O)O; Thr(3ξ) = CC(O)[C@H](N)C(=O)O; Pra = C#CC[C@H](N)C(=O)O

Biological target: T1, Signal transducer and activator of transcription 3 [127-722] (Mus musculus, UniProt P42227)
T1 construct: 127-722
Test: Fluorescence-Polarization-Based Binding Assay
Details: pH 7.5; 22 °C
From the text: Fluorescence polarization (FP) binding assay is utilizing the intrinsic property of the fluorescent probe, which will have low polarization value when free in solution. On binding to a target, the polarization of the probe will increase.

T1 sequence (P42227 127-722): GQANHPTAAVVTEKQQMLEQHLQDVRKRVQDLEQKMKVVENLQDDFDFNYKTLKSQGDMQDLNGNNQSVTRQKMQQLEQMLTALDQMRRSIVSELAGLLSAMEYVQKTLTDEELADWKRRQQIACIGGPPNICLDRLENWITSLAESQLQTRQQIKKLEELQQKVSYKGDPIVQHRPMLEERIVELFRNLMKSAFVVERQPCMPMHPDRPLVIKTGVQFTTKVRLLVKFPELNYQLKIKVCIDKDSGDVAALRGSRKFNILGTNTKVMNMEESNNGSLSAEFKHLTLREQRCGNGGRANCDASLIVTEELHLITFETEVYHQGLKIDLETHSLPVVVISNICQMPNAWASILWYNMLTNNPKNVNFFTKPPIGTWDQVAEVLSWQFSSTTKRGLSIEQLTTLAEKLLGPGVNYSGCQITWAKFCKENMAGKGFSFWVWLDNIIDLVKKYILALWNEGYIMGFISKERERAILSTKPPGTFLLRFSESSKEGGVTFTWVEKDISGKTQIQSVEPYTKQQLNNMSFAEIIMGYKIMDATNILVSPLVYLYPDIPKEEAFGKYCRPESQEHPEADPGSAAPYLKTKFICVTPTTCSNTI

Row | Structure (SMILES) | Ki
1 | CC(=O)N[C@@H](Cc1ccc(OP(=O)(O)O)cc1)C(=O)N[C@@H](CC(C)C)C(=O)N[C@@H](CCCCN)C(=O)N[C@H](C(=O)N[C@@H](CCCCN)C(=O)N[C@@H](Cc1ccccc1)C(N)=O)C(C)O (stereo partly drawn) [4-[(2S)-2-{[(1S)-1-{[(1S)-5-amino-1-{[(1S,2R)-1-{[(1S)-5-amino-1-{[(1S)-1-carbamoyl-2-phenylethyl]carbamoyl}pentyl]carbamoyl}-2-hydroxypropyl]carbamoyl}pentyl]carbamoyl}-3-methylbutyl]carbamoyl}-2-acetamidoethyl]phenoxyphosphonic acid] (HELM PEPTIDE1{[ac].[O=C([C@H](Cc1ccc(OP(=O)(O)O)cc1)N[*:1])[*:2]].L.K.[CC(O)[C@H](N[*:1])C(=O)[*:2]].K.F.[am]}$$$$V2.0) | 25.9 µM
2 | CC(=O)N[C@@H](Cc1ccc(OP(=O)(O)O)cc1)C(=O)N[C@@H](CC(C)C)C(=O)N[C@H]1CCCCn2cc(nn2)C[C@@H](C(=O)N[C@@H](Cc2ccccc2)C(N)=O)NC(=O)[C@H](C(C)O)NC1=O (stereo partly drawn) [4-[(2S)-2-{[(1S)-1-{[(6S,9S,12S)-12-{[(1S)-1-carbamoyl-2-phenylethyl]carbamoyl}-9-[(1R)-1-hydroxyethyl]-7,10-dioxo-1,8,11,15,16-pentaazabicyclo[12.2.1]heptadeca-14(17),15-dien-6-yl]carbamoyl}-3-methylbutyl]carbamoyl}-2-acetamidoethyl]phenoxyphosphonic acid] (Ac-[pY]L[Lys(N3)][Thr(3ξ)][Pra]F-NH2; triazole 3-5) | 7.3 µM
